Data on three molecules can be found in US20040005601A1, “Methods for targeting quadruplex DNA” (priority 2002, published 2004).

Experiment [1] relates to CMYC. Nature of the experiment: CMYC expression in Ramos Burkitt's lymphoma cell line (NHE III1 retained). The class given is cell-based. As for the experimental part: (§1) The importance of the NHE III1 sequence in mediating the CMYC transcriptional inhibition by TMPyP4 was assessed. Two Burkitt's lymphoma cell lines with different translocation break points within the CMYC and immunoglobulin loci were analyzed, which are referred to as the Ramos cell line and the CA46 cell line. While the Ramos cell line retained the NHE III1 during the translocation, the CA46 cell line lost this element, together with the P1 and P2 promoters (FIG. 5A). When the NHE III1 element was deleted, as in the CA46 cell line, TMPyP4 had no effect on CMYC transcriptional activation.

The test system of experiment [2] is CMYC. Description: CMYC expression in MiaPaCa cells. It counts as cell-based, human. Conditions: 100 μM.
For experiment [3], the system named is Pu27 chair quadruplex (CMYC NHE III1). Description: Taq polymerase stop assay at 60° C. with Pu27 insert template. The class given is biochemical. As for the experimental part: The same wild-type and mutant sequences of the Pu27 were used in a Taq polymerase stop assay, which was described in Han et al., Nucl. Acids Res. 27: 537-542 (1999). This assay is a modification of that used by Weitzmann et al., J. Biol. Chem. 271, 20958-20964 (1996), and is also described below. A reaction mixture of template DNA (77-mer with a Pu27 or mutant Pu27 insert) (50 nM), Tris.HCl (50 mM), MgCl2 (10 mM), DTT (0.5 mM), EDTA (0.1 mM), BSA (60 ng), and 5′-end-labeled 18-mer primer (˜18 nM) was heated to 90° C. for 5 min and allowed to cool to ambient temperature over 30 min. Taq Polymerase (1 μl) was added to the reaction mixture, and the reaction was maintained at a constant temperature (45° C. for the mutant Pu27 comparison; 60° C. for the porphyrin comparison) for 30 min. (For the porphyrin comparison, following cooling to ambient temperature, the requisite amount of porphyrin solution was added to the reaction mixture and left at ambient temperature for 30 min prior to the addition of polymerase.) Following the addition of 10 μl stop buffer (formamide [20 ml], 1 M NaOH [200 μl], 0.5 M EDTA [400 μl], 10 mg bromophenol blue), the DNA fragments were separated with a sequencing gel (12%) and visualized on a phosphorimager. Adenine sequencing (indicated by “A” at the top of the gel) was performed using double-stranded DNA Cycle Sequencing System from Life Technologies. The general sequence for 77-mer template strands was TCCAACTATGTATAC-INSERT-[…], and the 1 8-mer primer had the sequence TAATACGACTCACTATAG.
To further determine whether this selectivity of TMPyP4 versus TMPyP2 for the chair conformation correlated with an effect on CMYC transcription, a Taq polymerase stop assay was performed at an elevated temperature (60° C.) to partially destabilize the arresting quadruplex structure in the presence of increasing concentrations of TMPyP2 and TMPyP4. […] This is in agreement with the differential effects of the two compounds on CMYC expression in vitro and sensitivity in vivo to tumors that overexpress CMYC (MX-1 and PC-3).

In another experiment the test system is PDGFA quadruplex. Nature of the experiment: Stabilization of PDGFA quadruplex structure (polymerase arrest / chemical footprinting). The class given is biochemical. The text has this: (§2) Nucleic acids in a chair conformation often have similar but not identical structures when compared to one another and differences can manifest in loop size and nucleotide sequence, quadruplex geometry, quadruplex stability, the number of alternative chair structures for a given nucleotide sequence, and chemical reactivity, and binding of other molecules. Polymerase arrest assays and chemical footprinting studies applied to the CMYC chair quadruplex structure as described hereafter also were applied to nucleotide sequences upstream of the PDGFA and RET genes. It was determined that the NHE regions 5′ of the RET and PDGFA genes formed chair quadruplex structures that regulated transcription. FIG. 6A depicts a generalized quadruplex chair structure formed in the CMYC, PDGFA, and RET regulatory regions. In this chair structure, CMYC and RET have two stable tetrads and PDGFA has three stable tetrads. The N1 loop for CMYC is TG, for RET is GCG, and for PDGFA is CG. The N2 loop for CMYC is GAG, for RET is GCG, and for PDGFA is GCG. The N3 loop for CMYC is TG, for RET is GCG, and for PDGFA is CG (form A) or AG (form B). The different forms of the PDGFA quadruplex are depicted in FIG. 6C and the RET quadruplex structure is depicted in FIG. 6B. […]

The test system of experiment [4] is CMYC. Conditions: cited from earlier work.
Experiment [5] deals with CMYC. Description: CMYC transcription in CA46 Burkitt's lymphoma cell line (NHE III1 deleted). It counts as cell-based. The conditions noted are these: NHE III1 element deleted. Here is the method:
as §1

For a further experiment, the system named is G-quadruplex structures. Conditions: cited from earlier work.
Experiment [6] relates to RET quadruplex. Description: Stabilization of RET quadruplex structure (polymerase arrest / chemical footprinting). The class given is biochemical.
Source text: as §2

In experiment [7] the test system is RET quadruplex. Description: Photo-induced cleavage of the RET quadruplex. The class given is binding.
A further experiment relates to Pu27 chair G-quadruplex. Nature of the experiment: Porphyrin photocleavage of Pu27 chair quadruplex. The conditions noted are these: exposure to light. The class given is binding. The text has this:
The two quadruplex conformations of Pu27 were contacted with compounds known to bind quadruplex structures. Specifically, the two conformations were contacted with TMPyP4 and TMPyP2 (FIG. 4A) to further confirm the biologically relevant quadruplex conformation (FIGS. 4B or 4C). It has been shown that both TMPyP4 and TMPyP2 catalyze the oxidation of DNA upon exposure to light, which results in DNA strand breakage in proximity to the binding sites (Han et al., J. Am. Chem. Soc. 123: 8902-8913 (2001)).
An identical cleavage pattern was produced by both compounds for the basket quadruplex (FIG. 4B). DNA damage was centered on the constituent guanines of the six-base bridging loop, inferring that both porphyrins are able to bind to this region, but in a nonspecific way that is neither intercalating nor end-stacking (FIG. 4A).

A further experiment has as its system CMYC quadruplex. Nature of the experiment: Stabilization of CMYC quadruplex structure (polymerase arrest / chemical footprinting). The class given is biochemical.
Source text: as §2

The subject of another experiment is RET. Description: RET RNA expression in MiaPaCa cells (RT-PCR). Conditions: for downregulation of RET RNA expression: IC70 concentration. The class given is cell-based, human. As for the experimental part: The effects of two test molecules also were assessed for the RET quadruplex. MiaPaCa-2 (human pancreatic tumor) were obtained from ATCC and were cultured at 37° C./5% CO2 in RPMI medium (Cellgro) with 10% fetal bovine serum (FBS), 50 U/ml penicillin G sodium, and 50 U/ml streptomycin sulfate (Gibco/BRL). Cells were treated with TMPyP4 and telomestatin (for the latter molecule, see, e.g., Shin-ya et al., J. Am. Chem. Soc. 123:1262 (2001)) when they reached ˜50% confluency. MiaPaCa cells were first washed with 5 ml of sterile phosphate-buffered saline (PBS, Fisher Scientific). The PBS was aspirated from the cells by vacuum, and replaced with 5 ml of Opti-MEM medium (Gibco-BRL) containing 6 μl Lipofectin (Invitrogen). Compounds then were added to the medium. Cells were allowed to grow at 37° C./5% CO2 for 6 hours to allow for transfection, and the medium was replaced with normal growth medium. […] The trypsin was neutralized with an equal volume of culture medium, the cells were then pelleted from this mixture by centrifugation at 500×gravity, the supernatant was aspirated, and the pellet was washed in PBS, recentrifuged, and frozen at −80° C.
RET RNA then was extracted from the cells. Cell pellets were thawed and resuspended in 400 μl of a buffer from a commercially available kit (i.e., Buffer RA1 from the NucleoSpin RNA II Kit (Clontech)). Total cellular RNA extraction was performed according to the manufacturer's protocol. Reverse transcription was performed to convert mRNA (i.e., polyadenylated RNA) to cDNA, and RET-specific primers were used in PCR to amplify RET message.

Turning to `C[n+]1ccc(-c2c3nc(c(-c4cc[n+](C)cc4)c4ccc([nH]4)c(-c4cc[n+](C)cc4)c4ccc([nH]4)c(-c4cc[n+](C)cc4)c4nc2C=C4)C=C3)cc1` [TMPyP4], the “effect on CMYC expression” value with CMYC [1] is recorded as “lowered CMYC expression”. Also, the “downregulation of CMYC” value in the experiment on CMYC [2] is “about 50%”. Besides, the “polymerase arrest at quadruplex arrest site” value in experiment [3] (0.5 μM compound, 60° C.) is reported as approximately 65%; in experiment [3] (5 μM compound, 60° C.), “virtually total arrest”. The “conformation of Pu27 stabilized” value in experiment [3] (chair versus basket) is “stabilizes the chair conformation over the basket conformation”. Moreover, the “stabilization of PDGFA quadruplex structure” value in the experiment on PDGFA quadruplex is recorded as “stabilized”. For the same molecule, in the experiment on CMYC [4], the “effect on CMYC transcription and protein expression” value was “lowered”. In the experiment with CMYC [5], the “effect on CMYC transcriptional activation” value is “no effect”. Moreover, the “binding to G-quadruplex structures” value with G-quadruplex structures is on record as “able to bind”. Moreover, in the experiment with RET quadruplex [6], the “stabilization of RET quadruplex structure” value is reported as “not the RET quadruplex”. For the same molecule, the “binding site on RET quadruplex from photo-induced cleavage” value in the experiment with RET quadruplex [7] is “binds above and below the two stable tetrads”. In addition, the “photocleavage pattern of chair G-quadruplex” value in the experiment with Pu27 chair G-quadruplex is “specific cleavage pattern”. The “stabilization of CMYC quadruplex structure” value with CMYC quadruplex is listed as “stabilized”. The “downregulation of RET” value with RET (100 μM) is “did not significantly downregulate”.
Take `C[n+]1ccccc1-c1c2nc(c(-c3cccc[n+]3C)c3ccc([nH]3)c(-c3cccc[n+]3C)c3ccc([nH]3)c(-c3cccc[n+]3C)c3nc1C=C3)C=C2` [TMPyP2]: in the experiment on CMYC [1], the “effect on CMYC expression” value was “not”. In addition, the “stabilization of the quadruplex arrest site” value in experiment [3] (up to 20 μM compound, 60° C.) is listed as “only modestly stabilized”. Further, the “effect on CMYC transcription and protein expression” value in the experiment on CMYC [4] is recorded as “not”. In addition, the “binding to G-quadruplex structures” value in the experiment with G-quadruplex structures is “bound with less affinity”.
For the molecule `Cc1oc2nc1-c1nc(co1)-c1nc(co1)-c1nc(co1)-c1nc(co1)-c1nc(co1)C1=NC(CS1)c1nc-2c(C)o1` (centres unmarked) [telomestatin], the “downregulation of RET RNA expression” value with RET (after 48 hours) and in the experiment with RET (after 72 hours) was “at least 50%” throughout.
